The record followed here is patent EP0327744A1, “Oxytocin and vasopressin antagonists” (Merck & Co., Inc., priority 1988, dated 1989).

Like-named read-outs stand apart in the source and are kept apart here. Numbered stars: 1 amine (or outer) side, 2 acyl side, 3 side chain; on linkers, the order of the positions; unused ones are H or OH. Square brackets hold non-standard residues; d marks the D form. Peptide text beside a SMILES is read from it. ξ: configuration not given here. ξN(OH)Ile(3ξ) = CCC(C)C(NO)C(=O)O; NMeF = CN[CH](Cc1ccccc1)C(=O)O; X1 = O=C(C1CCCNN1[*:1])[*:2]

The target of one test is T1, V₁(pressor)-receptor (Rattus norvegicus, UniProt P30560).
T1 construct: crude membrane preparation of rat liver (V₁ receptor); from tissue; host or cells: rat liver, crude membrane preparation
The test can be described thus: [³H]Arginine Vasopressin Binding Assay, liver membranes (V₁). From the text:
(§1) The table summarizes the in vitro potencies of the various components to compete for ³H-vasopressin binding at two proposed vasopressin receptor subtypes (V₁, V₂), as well as to inhibit vasopressin-stimulated adenylate cyclase activity, a further measure of vasopressin antagonism.
(§2) The [³H]Arginine Vasopressin Binding Assay is an in vitro procedure which was adapted from the method of Guillon et al., Eur. J. Pharmacol. 85: […] (1982). It measures the relative affinity of the various test compounds for vasopressin receptor(s) labelled by [³H]vasopressin. Vasopressin receptors have been divided into two subtypes pharmacologically: the V₁(pressor)-receptor found in liver and vascular smooth muscle and the V₂(antidiuretic)-receptor found in kidney medulla. The binding assay uses a crude membrane preparation of rat liver (V₁ receptor) or kidney medulla (V₂ receptor) which is incubated with [³H]vasopressin in the presence or absence of the test compound. The IC₅₀ values (concentrations to inhibit [³H]vasopressin binding by 50%) for the various compounds (see Table III) are measures of their potencies and are inversely related to their affinities.

Test [1] addresses T2, V₂(antidiuretic)-receptor (Rattus norvegicus, UniProt Q00788).
T2 construct: crude membrane preparation of rat liver (V₁ receptor) or kidney medulla (V₂ receptor); from tissue; host or cells: rat kidney medulla, crude membrane preparation
Briefly: [³H]Arginine Vasopressin Binding Assay, kidney medulla membranes (V₂).
Excerpt: as §1, §2

Test [2] concerns the target T3, Vasopressin-stimulated adenylate cyclase in kidney medulla (V₂) (Rattus norvegicus, UniProt Q00788).
T3 construct: Vasopressin-stimulated adenylate cyclase in kidney medulla, therefore, is used as a functional assay; from tissue
The test can be described thus: Vasopressin-stimulated adenylate cyclase functional assay in kidney medulla (V₂ antagonism). It is filed as biochemical.
Excerpt: as §1
Vasopressin exerts its antidiuretic effects on the kidney through the stimulation of adenylate cyclase activity. Vasopressin-stimulated adenylate cyclase in kidney medulla, therefore, is used as a functional assay to determine the potencies of the various test compounds as V₂-vasopressin antagonists. In this assay, the IC₅₀ values obtained for the various compounds (see Table III) are measures of their potencies to inhibit the vasopressin-stimulated conversion of ATP to cAMP by adenylate cyclase. This method was adapted from Seamon et al., PNAS 78: 3363-3367 (1981).

The target in another test is T4, oxytocin receptor (Rattus norvegicus, UniProt P70536).
T4 construct: crude membrane preparation of rat uterus as the source of oxytocin receptors; from tissue; host or cells: rat uterus, crude membrane preparation
T4 sequence (P70536 1-388): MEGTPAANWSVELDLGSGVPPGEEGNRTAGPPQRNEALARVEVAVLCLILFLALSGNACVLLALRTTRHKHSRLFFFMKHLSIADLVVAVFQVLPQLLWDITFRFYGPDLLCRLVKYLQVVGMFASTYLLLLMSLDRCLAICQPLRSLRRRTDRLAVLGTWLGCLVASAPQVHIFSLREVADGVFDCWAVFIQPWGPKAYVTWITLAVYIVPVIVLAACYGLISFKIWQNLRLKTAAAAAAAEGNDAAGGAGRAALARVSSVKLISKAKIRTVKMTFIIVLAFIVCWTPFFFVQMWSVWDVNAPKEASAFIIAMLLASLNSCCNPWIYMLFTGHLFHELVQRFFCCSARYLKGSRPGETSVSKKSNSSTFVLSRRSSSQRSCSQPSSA
The test can be described thus: [³H]Oxytocin Binding Assay (crude membrane preparation of rat uterus). Conditions: inhibition of [³H]oxytocin binding, rat uterus membranes; read-out: IC₅₀ (nM) [³H]OT (uterus). An excerpt:
Oxytocin receptors have been identified in mammalian uterine tissue through the use of in vitro radioligand binding assays. These receptor binding sites mediate the contractile response of the uterine myometrium to oxytocin. […] The assay uses a crude membrane preparation of rat uterus as the source of oxytocin receptors. […]

Setting [3] is: IC₅₀ Values ³H-Arg⁸-Vasopressin Binding Liver (V₁), rat liver membranes, mean ± standard error.
Where [4] appears, read: IC₅₀ Values ³H-Arg⁸-Vasopressin Binding Kidney (V₂), rat kidney medulla membranes, mean ± standard error.

T1 sequence (P30560 whole entry): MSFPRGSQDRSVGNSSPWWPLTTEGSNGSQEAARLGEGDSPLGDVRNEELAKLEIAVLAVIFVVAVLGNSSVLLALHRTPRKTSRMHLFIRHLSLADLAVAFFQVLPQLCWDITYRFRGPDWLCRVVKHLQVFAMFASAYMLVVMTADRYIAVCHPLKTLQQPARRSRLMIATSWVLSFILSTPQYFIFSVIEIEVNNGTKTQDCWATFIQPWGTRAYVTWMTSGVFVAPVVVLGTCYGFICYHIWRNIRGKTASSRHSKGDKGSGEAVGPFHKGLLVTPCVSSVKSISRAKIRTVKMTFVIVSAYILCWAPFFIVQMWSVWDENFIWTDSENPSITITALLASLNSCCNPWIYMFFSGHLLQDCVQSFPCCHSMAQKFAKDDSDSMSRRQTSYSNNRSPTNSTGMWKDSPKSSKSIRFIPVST
T2 sequence (Q00788 whole entry): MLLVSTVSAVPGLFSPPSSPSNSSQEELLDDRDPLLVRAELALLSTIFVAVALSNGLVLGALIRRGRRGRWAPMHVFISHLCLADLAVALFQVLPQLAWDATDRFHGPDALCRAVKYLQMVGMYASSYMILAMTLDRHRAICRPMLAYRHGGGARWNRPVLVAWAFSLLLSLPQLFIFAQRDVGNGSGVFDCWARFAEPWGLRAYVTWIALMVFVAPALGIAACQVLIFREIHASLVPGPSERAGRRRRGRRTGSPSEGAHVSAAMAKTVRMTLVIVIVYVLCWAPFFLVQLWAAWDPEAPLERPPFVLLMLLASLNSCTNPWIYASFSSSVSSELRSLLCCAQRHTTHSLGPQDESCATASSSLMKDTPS
T3 sequence (Q00788 whole entry): as above

In the case of `CC(C)C1C(=O)N2NCCCC2C(=O)N2NCCCC2C(=O)N(C)C(Cc2ccccc2)C(=O)N2CCCC2C(=O)NC(Cc2ccccc2)C(=O)N1O` (centres unmarked) [Component A], the values for the IC50 (at V₁(pressor)-receptor (setting [3]); in test [1] (setting [4]); in test [2]) were 6.8 µM, 7.9 µM and 19 µM, respectively.

`CC(C)CC1C(=O)N2NCCCC2C(=O)N2NCCCC2C(=O)N(C)C(Cc2ccccc2)C(=O)N2CCCC2C(=O)NC(C(C)C)C(=O)N1O` (centres unmarked) [Component B]: the IC50 turned out to be 67.3 ± 16.5 µM at V₁(pressor)-receptor (setting [3]), 35.3 ± 6.1 µM in test [1] (setting [4]) and 62.7 ± 4.6 µM in test [2].

Take `CC(C)CC1C(=O)N2NCCCC2C(=O)N2NCCCC2C(=O)N(C)C(Cc2ccccc2)C(=O)N2CCCC2C(=O)NC(Cc2ccccc2)C(=O)N1O` (centres unmarked) [Component C]: the IC50 on V₁(pressor)-receptor (IC₅₀ Values ³H-Arg⁸-Vasopressin Binding Liver (V₁), rat liver membranes, molar IC₅₀ in brackets, based on MW of 700) is 6 µM; on V₁(pressor)-receptor (IC₅₀ Values ³H-Arg⁸-Vasopressin Binding Liver (V₁), rat liver membranes, value in µg/ml (exact MW not known)) it was 5.53 µM; in test [1] (IC₅₀ Values ³H-Arg⁸-Vasopressin Binding Kidney (V₂), rat kidney medulla membranes, molar IC₅₀ in brackets, based on MW of 700), 13 µM; in test [1] (IC₅₀ Values ³H-Arg⁸-Vasopressin Binding Kidney (V₂), rat kidney medulla membranes, value in µg/ml (exact MW not known)), 11.9 µM; in test [2] (read-out: IC₅₀ Values AVP-stimulated Ad. Cyclase Kidney (V₂), kidney medulla, molar IC₅₀ in brackets, based on MW of 700), 13 µM; in test [2] (read-out: IC₅₀ Values AVP-stimulated Ad. Cyclase Kidney (V₂), kidney medulla, value in µg/ml (exact MW not known)), 12.1 µM.

For `CCC(C)C1NC(=O)C2CCCN2C(=O)C(Cc2ccccc2)N(C)C(=O)C2CCCNN2C(=O)C2CCCNN2C(=O)C(CC(C)C)N(O)C1=O` (centres unmarked) [Component D], the IC50 was 30 µM at V₁(pressor)-receptor (rat liver membranes, molar IC₅₀ in brackets, based on MW of 700, read-out: IC₅₀ Values ³H-Arg⁸-Vasopressin Binding Liver (V₁) (converted)); 28.4 µM on V₁(pressor)-receptor (rat liver membranes, value in µg/ml (exact MW not known), read-out: IC₅₀ Values ³H-Arg⁸-Vasopressin Binding Liver (V₁) (converted)); 19 µM in test [1] (rat kidney medulla membranes, molar IC₅₀ in brackets, based on MW of 700, read-out: IC₅₀ Values ³H-Arg⁸-Vasopressin Binding Kidney (V₂) (converted)); 18.3 µM in test [1] (rat kidney medulla membranes, value in µg/ml (exact MW not known), read-out: IC₅₀ Values ³H-Arg⁸-Vasopressin Binding Kidney (V₂) (converted)); 20 µM in test [2] (kidney medulla, molar IC₅₀ in brackets, based on MW of 700, read-out: IC₅₀ Values AVP-stimulated Ad. Cyclase Kidney (V₂) (converted)); 19.3 µM in test [2] (kidney medulla, value in µg/ml (exact MW not known), read-out: IC₅₀ Values AVP-stimulated Ad. Cyclase Kidney (V₂) (converted)).

On to `CCC(C)C1NC(=O)C(Cc2ccccc2)NC(=O)C2CCCN2C(=O)C(Cc2ccccc2)N(C)C(=O)C2CCCNN2C(=O)C2CCCNN2C1=O` (centres unmarked) [Example 9] (cyclo([X1][X1][NMeF]PFI); configuration not given here), for which the IC50 at oxytocin receptor amounted to 170 ± 15 nM.

`CCC(C)C1C(=O)N2NCCCC2C(=O)N2NCCCC2C(=O)N(C)C(Cc2ccccc2)C(=O)N2CCCC2C(=O)NC(Cc2ccccc2)C(=O)N1O` (centres unmarked) [Formula I] (cyclo([ξN(OH)Ile(3ξ)][X1][X1][NMeF]PF); configuration not given here): the IC50 at oxytocin receptor is 370 ± 70 nM; at V₁(pressor)-receptor it was 11.7 ± 1.7 µM; in test [1] it was 9.8 ± 1.7 µM; in test [2], 10.2 ± 1.1 µM.
